In brackets after ≈: the same amount, converted by molar mass.
What was measured:
[1] = tested on: RAW264.7; experiment: Inhibition of LPS and IFN-gamma-induced nitric oxide production in mouse RAW264.7 cells after 16 hrs by Griess assay; assay type: functional, cell-based; conditions: RAW264.7, 16 h
[2] = tested on: RAW264.7; experiment: Inhibition of LPS and IFN-gamma-induced iNOS mRNA expression in mouse RAW264.7 cells for 8 hrs by RT-PCR analysis; assay type: functional, cell-based

IC50 [1] [µg/mL] | Compound | Activity [2]
8.9 (≈ 22.4 µM) | CC(C)=CC(=O)C/C(C)=C/CC[C@@]1(C)Oc2oc3cc(O)ccc3c(=O)c2[C@H]1C (relative stereo) [FUKANEFUROCHROMONE B] | –
11.5 (≈ 29 µM) | CC(C)=CC(=O)/C=C(\C)CCC[C@]1(C)Oc2oc3cc(O)ccc3c(=O)c2[C@H]1C (relative stereo) [FUKANEFUROCHROMONE C] | –
9.5 (≈ 24 µM) | CC(C)=CC(=O)/C=C(/C)CCC[C@]1(C)Oc2oc3cc(O)ccc3c(=O)c2[C@H]1C (relative stereo) [FUKANEFUROCHROMONE D] | Dose-dependent effect

Second part, the compound before the results:

Compound | IC50 [1] [µg/mL] | Activity [2]
CC(C)=CCC/C(C)=C/CC[C@]1(C)Oc2oc3cc(O)ccc3c(=O)c2[C@H]1C | 4.1 (≈ 10.7 µM) | –
CC(C)=CC(=O)C/C(C)=C/CC[C@]1(C)Oc2oc3cc(O)ccc3c(=O)c2[C@H]1C (relative stereo) [FUKANEFUROCHROMONE A] | 9.8 (≈ 24.7 µM) | –

Reference: ChEMBL document CHEMBL1151277, “Sesquiterpene chromones from Ferula fukanensis and their nitric oxide production inhibitory effects” (J Nat Prod, 2005)
